According to US12303468B2, “Compositions comprising one or more (bio)-alkanediols with antioxidants” (Symrise AG, priority 2020, dated 2025):
Several values for one entry are separate records, joined by “and”; a condition that tells them apart may be missing. Identical values can stand only once. One block for each compound: values may come before it.

Columns and labels:
[1] = Oxipres test (induction period, product protection); assay type: physicochemical; details: for antioxidative boosting (prolonged induction time, less rancidity and reduced acid value), in words: alkanediol in combination with antioxidant (tocopherol) in sunflower oil
Method: To evaluate the influence of 1,2-alkanediols or of 2,3-alkanediols on the antioxidative capacity of antioxidants, two different tests were performed: • (1) Oxipres treatment to simulate product protection; and • (2) Evaluation of reactive oxygen species (ROS) for skin protection.
The following tests were performed with sunflower oil +/− antioxidant and +/− alkanediols. […] Treating it with heat and oxygen triggers and accelerates oxidation easily.
An Oxipres test was performed in order to evaluate the antioxidative capacity of different test samples as described below.
Test procedure: For the evaluation of the antioxidative capacity of the above-described samples, an Oxipres test was conducted. The Oxipres method is bases on oxygen consumption at high temperatures and pressures and allows the determination of oxidative resistance (shelf life) of e.g. oils. The test runs under elevated pressure and temperature, where the process is accelerated. In the Oxipres test the sample is placed inside a hermetically closed iron vessel that is subjected to high oxygen pressures and temperatures of 90 to 120° C. […] The consumption of oxygen results in a pressure drop in the vessel during the test. Higher decrease of pressure indicates more consumption of oxygen and higher oxidation of the test product. Oils with a high degree of unsaturation are most susceptible to autoxidation.
In the test, the antioxidants are oxidized preferentially before the oxidizable fat or oil is oxidized. Thus, the antioxidants protect the fat or oil against oxidation. After this there is a sudden and large consumption of oxygen and the fat becomes rancid. This can be defined by the induction period (IP) in hours. A lower IP correlates with a faster oxidation.
Equipment: The tests were performed with an Oxipres device ex Mikrolab. The instrument is a modification of the bomb method (ASTM D941), which is based on oxidation with oxygen.

[2] = Solubility of alkanediols in water; assay type: physicochemical; details: visual assessment at ambient temperature after 24 h storage at 5° C.
From the text: The water solubility of a substance is the saturation mass concentration of the substance in water at a given temperature. The determination of the solubility in water relates to essentially pure substances which are stable in water and not volatile. The determination of the water solubility of the alkanediols is further described in the following Example 7.
For the determination of the maximum water solubility of an alkanediol. water and different concentrations of the respective alkanediol were blended by stirring. […] The determination of whether the alkanediol has dissolved in water is based entirely on visual observation.

[3] = system: reactive oxygen species (ROS) on monolayer cells; test: DCF assay on monolayer cells (2D); assay type: cell-based; details: 300 μM H2O2, Untreated = 100
Method: A dichlorofluorescein test (DCF) assay was performed in order to determine the amount of reactive oxygen species (ROS) on monolayer cells with different test samples as described below.
DCF assay—assay principle (2D): One procedure to quantify intracellular radicals in a cell model is by using the dichlorofluorescein (DCF) assay. […] By intracellular esterases and oxidation, the nonfluorescent H2DCFDA is converted to the highly fluorescent 2′,7′-dichlorofluorescein (DCF). The nonfluorescent fluorescein (2′,7′-dichlorofluorescein diacetate (DCFH-DA)) passes the cell membranes. In the cytoplasm, it is cleaved by intracellular esterases and cannot leave the cell in this form. The oxidation by intracellularly existing ROS (reactive oxygen species) modifies the molecule so that will become DCF and emits fluorescence. ROS stimulation is done by exposure to 300 μM H2O2 for 1 h.
The determination of the anti-oxidative capacity is performed in 96-well microplates from Nunc (Wiesbaden, Germany) and with the microplate reader “Spark” from Tecan (Crailsheim, Germany). Cells are seeded in a black 96 well microplate with transparent bottom and incubated at 37° C. After 24 h the supernatant is decanted and fresh media with 0.1% FBS is added. Further 24 hours later the supernatant is decanted again and the test samples are added and incubated for 24 h. As a positive control Trolox is always co-tested. 300 μM H2O2 is used as ROS source (1 h exposure) The emitted fluorescence is measured from bottom of well at EX/EM 485/528 nm.
The antioxidative capacity is expressed as relative reduction of the stimulated control, which can be determined by rule of proportion in combination with the control.

[4] = system: reactive oxygen species (ROS) on ex vivo skin; test: DCF assay on ex vivo skin biopsies, aqueous/alcoholic (ethanolic) test samples; assay type: cell-based; details: only the vehicle and the alkanediol, no antioxidant
Method: A dichlorofluorescein test (DCF) assay was performed in order to determine the amount of reactive oxygen species (ROS) on ex vivo skin treated with different test samples in a lipophilic or an aqueous/alcoholic system as described below.
DCF assay—assay principle: Ex vivo skin was incubated with 2′,7′-dichlorodihydrofluorescein diacetate at 37° C., 5% CO2. After PBS washing, samples were exposed or not to cumene hydroperoxide. Immediately after exposure, ex vivo skin samples were frozen in liquid nitrogen and 5 μm cryostat sections were made and fixed with acetone to allow the visualisation of fluorescence generated by ROS in cells of the reconstructed skins. […] Green fluorescence was quantified in ex vivo skin using ImageJ software. The depth of immunostaining was measured as follows: green DCFH-DE positive cells were automatically detected using Histolab software and the distance between dermal epidermal junction and the deepest positive cells were measured in each condition. Means were compared using a student's test. […]
The image acquisition was performed by using Olympus BX51 microscope and Olympus DP70 camera. For each skin sample two skin sections have been taken and the related fluorescent images acquired and analyzed. Thus, for each test condition, 12 images have been acquired and analyzed (i.e. 12 data). The analysis of fluorescence has been performed within the dermis area. […]

[5] = system: IL-8 produced and secreted by HaCaT cells; test: Interleukin 8 (IL-8) ELISA; assay type: cell-based, human; details: IL 1-alpha stimulated
Method: Interleukin 8 (IL-8) is increased by various kinds of stress including UV and oxidant stress, which thereby cause the recruitment of inflammatory cells and induces further increase in oxidant stress mediators, making it a key parameter in localized inflammation.
An IL-8 ELISA (enzyme lined immunosorbance assay) was performed in order to determine IL-8 produced and secreted by cells from the cell supernatant utilizing antibodies detecting the IL-8.
Experimental procedure: HaCaT cells (spontaneously transformed aneuploid immortal keratinocyte cell line from adult human skin) were seeded in a black 96 well microplate with transparent bottom and incubated at 37° C. After 24 hours the supernatant is decanted and the test samples (100 μl/well) are added and incubated for 24 hours at 37° C. Then IL 1-alpha (1 ng/ml per 100 μl/well) was added as stimulant. Then the medium was changed (100 μl/well) and incubated at 37° C. After 4 h a 70 μl sample was recovered from the cell supernatant. Thereafter, an IL-8 ELISA is carried out with the cell supernatant sample.
The lower the IL-8 concentration the better the […] effect of the antioxidant of the sample.

[6] = in combination with Ascorbyl Palmitate in sunflower oil
[7] = in combination with Hydroxyacetophenone in sunflower oil

Maximum solubility in water [2]: 1.5 % by weight
Structure (SMILES): CCCCCC(O)C(C)O (stereo not shown) [2,3-octanediol]
Mean, ROS concentration (%) ([3]; 500 μM): 98% | antioxidative boosting (prolonged induction time, less rancidity and reduced acid value), in words [1]: distinguished efficacy for antioxidative boosting

Maximum solubility in water [2]: 0.3 % by weight
Structure (SMILES): CCCCCCC(O)C(C)O (stereo not shown) [2,3-nonanediol]

induction period, in words [1, 6]: remarkably prolonged induction periods | induction period, in words [1, 7]: remarkably prolonged induction periods | Maximum solubility in water [2]: 3.6 % by weight
Structure (SMILES): CCCCC(O)C(C)O (stereo not shown) [2,3-heptanediol]
antioxidative efficacy, in words [4]: do not have an antioxidative efficacy

induction period, in words ([1]; sunflower oil, tocopherol series (samples 1-43), versus comparative samples of the series): prolonged induction periods
Structure (SMILES): CCCC(O)C(C)O (stereo not shown) [2,3-hexanediol]

Maximum solubility in water [2]: 0.5 % by weight
Structure (SMILES): CCCCCCC(O)CO (stereo not shown) [Hydrolite ® 8]

induction period, in words [1, 6]: remarkably prolonged induction periods | induction period, in words [1, 7]: remarkably prolonged induction periods | Maximum solubility in water [2]: 2.5 % by weight
Structure (SMILES): CCCCCC(O)CO (stereo not shown) [1,2-heptanediol]
Mean, ROS concentration (%) ([3]; 500 μM): 112% | IL-8 concentration ([5]; 500 μM): 959.8 pg/mL and 959.85 pg/mL | antioxidative boosting (prolonged induction time, less rancidity and reduced acid value), in words [1]: distinguished efficacy for antioxidative boosting | antioxidative efficacy, in words [4]: do not have an antioxidative efficacy

Second part, the compound before the results:

Structure (SMILES): CCCCCCCC(O)CO (stereo not shown) [1,2-nonediol, 1,2-nonanediol]
antioxidative boosting (prolonged induction time, less rancidity and reduced acid value), in words [1]: distinguished efficacy for antioxidative boosting | Maximum solubility in water [2]: 0.1 % by weight

Structure (SMILES): Cc1c(C)c2c(c(C)c1O)CC[C@@](C)(CCC[C@H](C)CCC[C@H](C)CCCC(C)C)O2 [alpha-Tocopherol]
Mean, ROS concentration (%) ([3]; 50 μM): 45% | Mean, ROS concentration (%) ([3]; 100 μM): 58%

Structure (SMILES): N=C(N)NCCC[C@H](NC(=O)C[C@H](N)C(=O)O)C(=O)O [beta-aspartyl arginine]
Mean, ROS concentration (%) ([3]; 10000 μM): 103%

Structure (SMILES): CC1=C(/C=C/C(C)=C/C=C/C(C)=C/CO)C(C)(C)CCC1 [all trans-Retinol, reference compound]
Mean, ROS concentration (%) ([3]; 50 μM): 100% | IL-8 concentration ([5]; 50 μM): 670.8 pg/mL and 670.84 pg/mL

Structure (SMILES): NCCC(=O)N[C@@H](Cc1cnc[nH]1)C(=O)O [Carnosine]
Mean, ROS concentration (%) ([3]; 10 mM): 96%

Structure (SMILES): CC1=C(/C=C/C(C)=C/C=C/C(C)=C/C(=O)OCC(=O)C(C)(C)C)C(C)(C)CCC1 [Hydroxypinacolone Retinoate]
Mean, ROS concentration (%) ([3]; 5 μM + 500 μM): 53%

Structure (SMILES): CCCCC(O)CO (stereo not shown) [Hydrolite ® 6]
Maximum solubility in water [2]: 50 % by weight

Structure (SMILES): CCCCCCCCC(O)CO (stereo not shown) [1,2-decanediol]
antioxidative boosting (prolonged induction time, less rancidity and reduced acid value), in words [1]: distinguished efficacy for antioxidative boosting
